Laboratory results taken from ChEMBL document CHEMBL1146528, “Isolation and structures of avicins D and G: in vitro tumor-inhibitory saponins derived from Acacia victoriae” (J Nat Prod, 2003).
≈ marks a conversion by molar mass, not a printed value.

Each compound was assayed on Jurkat (assay: Cytotoxicity against human Jurkat cells after 72 hrs by MTT assay).
Assay type: functional, cell-based
In the case of CC(=O)N[C@H]1[C@H](O[C@H]2CC[C@]3(C)[C@H]4CC=C5[C@@H]6CC(C)(C)[C@@H](O)C[C@]6(C(=O)O)[C@H](O)C[C@@]5(C)[C@]4(C)CC[C@H]3C2(C)C)O[C@H](CO[C@@H]2O[C@H](C)[C@H](O)[C@H](O)[C@H]2O[C@@H]2OC[C@@H](O)[C@H](O)[C@H]2O)[C@@H](O)[C@@H]1O, the IC50 is reported as > 100 µg/mL. In the case of CC1(C)C[C@H]2C3=CC[C@@H]4[C@@]5(C)CC[C@H](O)C(C)(C)[C@@H]5CC[C@@]4(C)[C@]3(C)C[C@@H](O)[C@@]23C[C@@H]1OC3=O, the IC50 is reported as > 100 µg/mL. In the case of C=C[C@](C)(O)CC/C=C(\CO)C(=O)O[C@H]1[C@H](O)[C@@H](O)[C@H](O[C@@](C)(C=C)CC/C=C(\CO)C(=O)O[C@H]2C[C@]3(C(=O)O[C@@H]4O[C@H](CO)[C@@H](O)[C@H](O)[C@H]4O[C@@H]4O[C@@H](C)[C@H](O[C@@H]5O[C@@H](CO)[C@H](O)[C@H]5O)[C@@H](O[C@@H]5O[C@H](CO)[C@@H](O)[C@H](O)[C@H]5O)[C@H]4O)[C@H](O)C[C@]4(C)C(=CC[C@@H]5[C@@]6(C)CC[C@H](O[C@@H]7O[C@H](CO[C@@H]8O[C@H](C)[C@H](O)[C@H](O)[C@H]8O[C@@H]8OC[C@@H](O)[C@H](O)[C@H]8O)[C@@H](O)[C@H](O)[C@H]7NC(C)=O)C(C)(C)[C@@H]6CC[C@]54C)[C@@H]3CC2(C)C)O[C@@H]1C [AVICIN D], the IC50 is reported as 0.58 µg/mL (≈ 0.278 µM). Work on C=C[C@](C)(O)CC/C=C(\C)C(=O)O[C@H]1[C@H](O)[C@@H](O)[C@H](O[C@@](C)(C=C)CC/C=C(\CO)C(=O)O[C@H]2C[C@]3(C(=O)O[C@@H]4O[C@H](CO)[C@@H](O)[C@H](O)[C@H]4O[C@@H]4O[C@@H](C)[C@H](O[C@@H]5O[C@@H](CO)[C@H](O)[C@H]5O)[C@@H](O[C@@H]5O[C@H](CO)[C@@H](O)[C@H](O)[C@H]5O)[C@H]4O)[C@H](O)C[C@]4(C)C(=CC[C@@H]5[C@@]6(C)CC[C@H](O[C@@H]7O[C@H](CO[C@@H]8O[C@H](C)[C@H](O)[C@H](O)[C@H]8O[C@@H]8OC[C@@H](O)[C@H](O)[C@H]8O)[C@@H](O)[C@H](O)[C@H]7NC(C)=O)C(C)(C)[C@@H]6CC[C@]54C)[C@@H]3CC2(C)C)O[C@@H]1C [AVICIN G] yielded an IC50 of 0.22 µg/mL (≈ 0.106 µM). In the case of C=C[C@@](C)(CC/C=C(\CO)C(=O)O[C@H]1C[C@]2(C(=O)O[C@@H]3O[C@H](CO)[C@@H](O)[C@H](O)[C@H]3O[C@@H]3O[C@@H](C)[C@H](O[C@@H]4O[C@@H](CO)[C@H](O)[C@H]4O)[C@@H](O[C@@H]4O[C@H](CO)[C@@H](O)[C@H](O)[C@H]4O)[C@H]3O)[C@H](O)C[C@]3(C)C(=CC[C@@H]4[C@@]5(C)CC[C@H](O[C@@H]6O[C@H](CO[C@@H]7O[C@H](C)[C@H](O)[C@H](O)[C@H]7O[C@@H]7OC[C@@H](O)[C@H](O)[C@H]7O)[C@@H](O)[C@H](O)[C@H]6NC(C)=O)C(C)(C)[C@@H]5CC[C@]43C)[C@@H]2CC1(C)C)O[C@@H]1O[C@H](C)[C@@H](O)[C@H](O)[C@H]1O [JULIBROSIDE J29], the IC50 is reported as 5.8 µg/mL (≈ 3.05 µM).
